Test [1] concerns Mycobacterium tuberculosis H37Rv. As to the kind of experiment: In vivo action in mice infected with tuberculosis (Tb germ count in spleen). Particulars: once daily, 2 weeks (5 times per week); for In vivo action, index of reduction in Tb germs, Tb-mice, orally: 100 mg/kg orally; for In vivo action, index of reduction in Tb germs, Tb-mice, subcutaneously: 100 mg/kg subcutaneously. Also noted: species or system white mice (CFI breed). As to the method:
(§1) The animal experiments were above all carried out with white mice (CFI breed, Winkelmann, Kirchborchen) infected with Mycobacterium tuberculosis H37Rv. After intravenous infection with 10^4 -10^5 germ units/mouse, an oral or subcutaneous treatment was carried out once daily for a period of 2 weeks (that is to say 5 times per week). At predetermined intervals of time (11th, 14th and 17th day after infection) mice from the treatment groups were killed, the spleens were removed and standardised smear preparations were produced from the homogenate; the tubercle germ content in these was evaluated by means of fluorescence microscopy. […] The values obtained are grouped together in 5 rating groups and give a germ count index; the indices denote the following:
(§2) Index 0 corresponds to a reduction in the germ count of
(§3) Index 1 corresponds to a reduction in the germ count of
(§4) Index 2 corresponds to a reduction in the germ count of
(§5) >40-70% = distinct action
(§6) Index 3 corresponds to a reduction in the germ count of
Index 4 corresponds to a reduction in the germ count of […]

For test [2] the test system is unchanged. As to the kind of experiment: In vivo action in guinea pigs infected with tuberculosis (Tb germ count in lung). Particulars: 30 mg/kg orally, once daily from 14th day, 3 weeks (5 times per week). As to the method:
as §1, §2, §3, §4, §5, §6
Index 4 corresponds to a reduction in the germ count of
In addition to the experiments on mice infected with tuberculosis, experiments were carried out analogously on guinea pigs. In this case, the germ count was determined on the lung homogenate. The animals were infected subcutaneously intrainguinally with Mycobacterium tuberculosis H37Rv and were subjected to therapy once daily from the 14th day after infection over a period of 3 weeks, that is to say 5 times per week. The germ counts were determined in the 4th, 5th and 6th week after infection.

Test [3] shares this test system. As to the kind of experiment: Minimum inhibitory concentration on Lowenstein-Jensen egg medium, normally sensitive test strain. It is filed as cell-based. Particulars: per ml of nutrient medium.
Test [4] concerns "Atypical mycobacteria" Runyon Grouping 4. Briefly: Anti-mycobacterial spectrum of action (MIC), atypical mycobacteria Runyon grouping 4. Type of test: cell-based. Particulars: modified Difco-Tb-Bouillon.
For test [5], the system named is "Atypical mycobacteria" Runyon Grouping 2. Briefly: Anti-mycobacterial spectrum of action (MIC), atypical mycobacteria Runyon grouping 2. It is filed as cell-based. Particulars: modified Difco-Tb-Bouillon.
For test [6], the system named is Mycobacterium tuberculosis H37Rv. Briefly: MIC in modified Difco-Tb-Bouillon, normally sensitive strain. Type of test: cell-based.
Test [7] deals with "Atypical mycobacteria" Runyon Grouping 1. Briefly: Anti-mycobacterial spectrum of action (MIC), atypical mycobacteria Runyon grouping 1. It is filed as cell-based. Particulars: modified Difco-Tb-Bouillon.
The subject of a further test is M. bovis Ravenal. As to the kind of experiment: microbe, parasite or virus in culture. Type of test: cell-based. Particulars: Mycobacterium tuberculosis variant bovis, read-out: MIC, M. bovis Ravenal.
For test [8], the system named is "Atypical mycobacteria" Runyon Grouping 3. Briefly: Anti-mycobacterial spectrum of action (MIC), atypical mycobacteria Runyon grouping 3. It is filed as cell-based. Particulars: modified Difco-Tb-Bouillon.
Setting [9] is: Table 2, read-out: MIC, normally sensitive H37Rv (Table 2).
Where [10] appears, read: Table 3, read-out: MIC, M. tuberculosis H37Rv (Table 3).

Molecules are shown by their SMILES. ≈ marks a conversion by molar mass, not a printed value.

Take `O=C(NCc1cccnc1)c1cc([N+](=O)[O-])cc([N+](=O)[O-])c1` [Example 12]: in [1], the “In vivo action, index of reduction in Tb germs, Tb-mice, orally” value was 2 (reduction in the germ count of >40-70% = distinct action) and the “In vivo action, index of reduction in Tb germs, Tb-mice, subcutaneously” value is on record as 2 (reduction in the germ count of >40-70% = distinct action). In addition, the “In vivo action, index of reduction in Tb germs, Tb-guinea pigs, orally” value in [2] was 3 (reduction in the germ count of >70-90% = good action). The MIC in [3] was 32 µg/mL (≈ 106 µM).
For `O=C(NCC1CCCO1)c1cc([N+](=O)[O-])cc([N+](=O)[O-])c1` (stereo not shown) [Example 20], the MIC in [4] was 6.2 µg/mL (≈ 21 µM); in test [5], 6.2 µg/mL (≈ 21 µM); in test [6] (setting [9]) it was 1.6 µg/mL (≈ 5.42 µM); in test [6] (setting [10]) it was 1.6 µg/mL (≈ 5.42 µM); in test [7] it was 6.2 µg/mL (≈ 21 µM); in the test with M. bovis Ravenal, 3.1 µg/mL (≈ 10.5 µM). This compound returned an MIC in test [8] of 100 µg/mL (≈ 339 µM).
As for `O=C(NCC1CCC=CO1)c1cc([N+](=O)[O-])cc([N+](=O)[O-])c1` (stereo not shown) [Example 22], the MIC in test [4] is 1.6 µg/mL (≈ 5.21 µM); in [5] it was 1.6 µg/mL (≈ 5.21 µM); in [6] (setting [9]) it was 0.4 µg/mL (≈ 1.3 µM); in [6] (setting [10]), 0.4 µg/mL (≈ 1.3 µM); in [7] it was 1.6 µg/mL (≈ 5.21 µM); in the test on M. bovis Ravenal it was 3.1 µg/mL (≈ 10.1 µM). For the same compound, in test [8], the MIC was over 100 µg/mL.
`O=C(NCc1ccc2ccccc2n1)c1cc([N+](=O)[O-])cc([N+](=O)[O-])c1` [Example 15]: the MIC in test [4] amounted to 1.6 µg/mL (≈ 4.54 µM); in test [5] it was 6.2 µg/mL (≈ 17.6 µM); in test [6] (setting [9]) it was 0.2 µg/mL (≈ 0.568 µM); in [6] (setting [10]), 0.2 µg/mL (≈ 0.568 µM); in [7] it was 1.6 µg/mL (≈ 4.54 µM); in the test on M. bovis Ravenal, 0.8 µg/mL (≈ 2.27 µM). The MIC in [3] is 1 µg/mL (≈ 2.84 µM); in test [8], 1.6 µg/mL (≈ 4.54 µM). Also, the “In vivo action, index of reduction in Tb germs, Tb-mice, orally” value in test [1] is 3 (reduction in the germ count of >70-90% = good action). Further, the “In vivo action, index of reduction in Tb germs, Tb-mice, subcutaneously” value in [1] is reported as 2 (reduction in the germ count of >40-70% = distinct action). For the same compound, the “In vivo action, index of reduction in Tb germs, Tb-guinea pigs, orally” value in test [2] is recorded as 3 (reduction in the germ count of >70-90% = good action).
Regarding `O=C(NCCc1ccccn1)c1cc([N+](=O)[O-])cc([N+](=O)[O-])c1` [Example 10], in test [1], the “In vivo action, index of reduction in Tb germs, Tb-mice, orally” value is on record as 2 (reduction in the germ count of >40-70% = distinct action) and the “In vivo action, index of reduction in Tb germs, Tb-mice, subcutaneously” value is 2 (reduction in the germ count of >40-70% = distinct action). The “In vivo action, index of reduction in Tb germs, Tb-guinea pigs, orally” value in test [2] is recorded as 3 (reduction in the germ count of >70-90% = good action). This compound returned an MIC in test [3] of 1 µg/mL (≈ 3.16 µM).
On to `O=C(NCc1ccncc1)c1cc([N+](=O)[O-])cc([N+](=O)[O-])c1` [Example 13], for which, in test [1], the “In vivo action, index of reduction in Tb germs, Tb-mice, orally” value is given as 3 (reduction in the germ count of >70-90% = good action) and the “In vivo action, index of reduction in Tb germs, Tb-mice, subcutaneously” value is reported as 2 (reduction in the germ count of >40-70% = distinct action). Also, in test [2], the “In vivo action, index of reduction in Tb germs, Tb-guinea pigs, orally” value is given as 4 (reduction in the germ count of >90% = very good action). The MIC in test [3] is 32 µg/mL (≈ 106 µM).
For `O=C(NCc1cnc2ccccc2c1)c1cc([N+](=O)[O-])cc([N+](=O)[O-])c1` [Example 9], the MIC was determined as 1.6 µg/mL (≈ 4.54 µM) in test [4]; 3.1 µg/mL (≈ 8.8 µM) in test [5]; 0.2 µg/mL (≈ 0.568 µM) in test [6] (setting [9]); 0.2 µg/mL (≈ 0.568 µM) in test [6] (setting [10]); 3.1 µg/mL (≈ 8.8 µM) in [7]; 0.4 µg/mL (≈ 1.14 µM) in the test with M. bovis Ravenal. Moreover, the MIC in [3] was 2 µg/mL (≈ 5.68 µM); in [8], over 100 µg/mL. Moreover, in test [1], the “In vivo action, index of reduction in Tb germs, Tb-mice, orally” value is 1 (reduction in the germ count of >20-40% = trace action). Also, the “In vivo action, index of reduction in Tb germs, Tb-mice, subcutaneously” value in test [1] is recorded as 1 (reduction in the germ count of >20-40% = trace action). Moreover, in [2], the “In vivo action, index of reduction in Tb germs, Tb-guinea pigs, orally” value was 4 (reduction in the germ count of >90% = very good action).
As for `CC(NC(=O)c1cc([N+](=O)[O-])cc([N+](=O)[O-])c1)c1ccccn1` (stereo not shown) [Example 29], the MIC in [4] worked out at 3.1 µg/mL (≈ 9.8 µM); in [5], 3.1 µg/mL (≈ 9.8 µM); in test [6] (setting [9]), 1.6 µg/mL (≈ 5.06 µM); in test [6] (setting [10]), 1.6 µg/mL (≈ 5.06 µM); in [7], 3.1 µg/mL (≈ 9.8 µM); in the test with M. bovis Ravenal it was 3.1 µg/mL (≈ 9.8 µM). Further, the values for the MIC in [3] and in test [8] were 2 µg/mL (≈ 6.32 µM) and 100 µg/mL (≈ 316 µM), respectively. The “In vivo action, index of reduction in Tb germs, Tb-mice, orally” value in [1] is 4 (reduction in the germ count of >90% = very good action). Moreover, the “In vivo action, index of reduction in Tb germs, Tb-mice, subcutaneously” value in [1] is 3 (reduction in the germ count of >70-90% = good action).
As for `O=C(NCc1ccccn1)c1cc([N+](=O)[O-])cc([N+](=O)[O-])c1` [Example 1, N-(pyrid-2-ylmethyl)-3,5-dinitrobenzoic acid amide], the MIC in test [4] came out at 6.2 µg/mL (≈ 20.5 µM); in [5] it was 6.2 µg/mL (≈ 20.5 µM); in test [6] (setting [9]), 1.6 µg/mL (≈ 5.29 µM); in test [6] (setting [10]), 1.6 µg/mL (≈ 5.29 µM); in [7], 6.2 µg/mL (≈ 20.5 µM); with M. bovis Ravenal, 3.1 µg/mL (≈ 10.3 µM). Besides, the MIC was 1 µg/mL (≈ 3.31 µM) in test [3] and 50 µg/mL (≈ 165 µM) in test [8]. For the same compound, the “In vivo action, index of reduction in Tb germs, Tb-mice, orally” value in test [1] is on record as 4 (reduction in the germ count of >90% = very good action). The “In vivo action, index of reduction in Tb germs, Tb-mice, subcutaneously” value in test [1] is 3 (reduction in the germ count of >70-90% = good action). In [2], the “In vivo action, index of reduction in Tb germs, Tb-guinea pigs, orally” value is on record as 4 (reduction in the germ count of >90% = very good action).
Regarding `Cc1cccc(CNC(=O)c2cc([N+](=O)[O-])cc([N+](=O)[O-])c2)n1` [Example 14], the MIC is 12.5 µg/mL (≈ 39.5 µM) in test [4]; 12.5 µg/mL (≈ 39.5 µM) in [5]; 3.1 µg/mL (≈ 9.8 µM) in [6] (setting [9]); 3.1 µg/mL (≈ 9.8 µM) in [6] (setting [10]); 6.2 µg/mL (≈ 19.6 µM) in [7]; 3.1 µg/mL (≈ 9.8 µM) with M. bovis Ravenal. This compound had an MIC in test [8] of 25 µg/mL (≈ 79 µM).

Values taken from patent US3995044A, “Pyridine carboxylic acid amides for mycobacterium infections” (priority 1974, dated 1976).
